According to patent publication US5939403A, “Keratan sulfate oligosaccharide fraction and pharmaceutical containing the same” (Seikagaku Corporation, priority 1994, dated 1999):
Where a name gives a salt, the structure may show the parent alone.

What was measured:
allergic conjunctivitis = experiment: TDI-induced allergic conjunctivitis model, eye dropping; format: in vivo, female Hartley guinea pigs
Protocol: A variety of the keratan sulfate oligosaccharide was dropped in the eyes of the guinea pigs subjected to the induction of allergic conjunctivitis to examine the effect thereof.
Toluene diisocyanate (hereinafter referred to as TDI) was diluted with ethyl acetate to a concentration of 10%. To the bilateral vestibule of noses of 10 female Hartley guinea pigs of from about 900 to 1,000 g weight, the 10% TDI (10 μl/animal) obtained above was applied once a day for five days to prepare the TDI sensitization models. The PBS solution of the purified keratan sulfate tetrasaccharide (I) ([…]) which was prepared in Example 1 was dropped in the left eyes of the TDI sensitization models, while PBS was dropped in the right eyes as the control. The dose of dropping was one drop (48+4.6 μl (S.D.)) each from the eye dropper. After 10 minutes, 6.5 μl of 10% TDI was dropped to the both eyes to induce conjunctivitis. After five minutes standing, furthermore, the PBS solution of the keratan sulfate tetrasaccharide (I) ([…]) was dropped in the left eyes, and PBS was dropped in the right eyes. After 15 minutes, observation of the both eyes were carried out. The degree of conjunctivitis was evaluated regarding three items of hyperemia, edema and lacrimation into four grades such as point 0, +1, +2 and +3. In the figure, * represents that it has the significant difference with p<0.05 (wherein "p" means a level of significance by the .chi.^2 test).
The PBS solution of the purified keratan sulfate disaccharide (III), the keratan sulfate tetrasaccharide (I), and the keratan sulfate pentasaccharide (II) (6.0 mg/ml, respectively)which were prepared in Example 1 described above as the test substances were dropped, respectively, in the left eyes of the TDI sensitization models of 10 animals a group each which were prepared in the same manner as in (1) described above, and PBS was dropped in the right eyes as the control. The degree of conjunctivitis was evaluated in the same manner as in (1) described above. In the figure, * represents that it has the significant difference with p<0.05 (wherein "p" means a level of significance by the .chi.^2 test).
The PBS solution containing the purified keratan sulfate tetrasaccharide (I) which was prepared in Example 1 described above, at varieties of concentrations (6 mg/ml, 3 mg/ml, 1.5 mg/ml or 0.75 mg/ml) as the test substance, were dropped, respectively, in the left eyes of the TDI sensitization models of 10 animals a group each which were prepared in the same manner as in (1) described above, and PBS was dropped in the right eyes as the control. The degree of conjunctivitis was evaluated in the same manner as in (1) described above. In the figure, * represents that it has the significant differnce with p<0.05 (wherein "p" means a level of significance by the .chi.^2 test).

MRL-lpr/lpr mice [1] = experiment: Repeated intramuscular administration for four weeks in MRL mice (spleen and mesenteric lymph node weight); format: in vivo
Protocol: (§1) The effect of the keratan sulfate oligosaccharide was examined on MRL mice which are autoimmune disease model mice.
The PBS solution of the purified keratan sulfate tetrasaccharide (I) (100 mg/ml) which was prepared in Example 1 described above at a dose of 10 mg/kg weight (hereinafter referred to as the administered group), and PBS as the control was intramuscularly injected, respectively, to the femoral region of MRL-lpr/lpr mice five times a week for four weeks. After that, the mice were subjected to anatomization, and the weight of spleens and mesenteric lymph nodes were determined to obtain the average weight. In the table, "n" represents the number of mice used.

MRL-lpr/lpr mice [2] = experiment: Repeated intramuscular administration for 28 days in MRL mice (submandibular lymph node weight); format: in vivo
Protocol: as §1
The PBS solution of the purified keratan sulfate disaccharide (III) which was prepared in Example 1 described above at a dose of 1 mg/kg, 5 mg/kg, or 25 mg/kg weight (hereinafter referred to as the 1 mg/kg administered group, the 5 mg/kg administered group, and the 25 mg/kg administered group, respectively), and PBS as the control (hereinafter sometimes referred to as the control group) was intramuscularly injected, respectively, to the femoral region of MRL-lpr/lpr mice seven times a week for four weeks. After that, the mice were subjected to anatomization, and the weight of submandibular lymph nodes was determined to obtain the average weight. In each group, six mice were used. Further, in the figure, * represents that it has the significant difference with p<0.05 (wherein "p" means a level of significance by the Bonferroni multiple comparative test).

lymphocytes = experiment: Cell differentiation induction: lymphocyte surface antigen of lymph node; format: in vivo, MRL-lpr/lpr mice; conditions: 10 mg/kg i.m., eight weeks; vs control, 2.5 and 5 mg/kg
Protocol: The PBS solution of the purified keratan sulfate disaccharide (III) which was prepared in Example 1 described above at a dose of 2.5 mg/kg, 5 mg/kg, or 10 mg/kg weight (hereinafter referred to as the 2.5 mg/kg administered group, the 5 mg/kg administered group, and the 10 mg/kg administered group, respectively), and PBS as the control (hereinafter sometimes referred to as the control group) was intramuscularly injected, respectively, to the femoral region of MRL-lpr/lpr mice seven times a week for eight weeks. After that, the mice were subjected to anatomization, and the lymph nodes were minced on a cell strainer (Falcon 2350) to prepare the lymphocyte. The lymphocyte prepared of each group was subjected to the double immune staining with the anti-CD3 antibody (Seikagaku Corporation) and the anti-CD4 antibody (Pharminjen), that with the anti-CD3 antibody and the anti-CD8a antibody (Pharminjen), and that with the anti-CD3 antibody and the anti-B220 antibody (Pharminjen), respectively. The CD3, CD4, and CDBa are cell surface antigens which are expressed on T cells, and the B220 is that expressed on B cells. And it is known that no expression of these cell surface antigens is observed on null lymphocytes.
The proportion (%) of the CD3 and CD4 positive cells (hereinafter sometimes referred to as "the CD3+CD4+cells"; mainly helper T cells) to all the lymphocytes and the standard errors are shown in FIG. 19, that of the CD3 and CD8a positive cells (hereinafter sometimes referred to as "the CD3+CD8a+cells"; mainly suppressor T cells and cytotoxic T cells) and the standard errors are shown in FIG. 20, and that of the CD3 and B220 positive cells (hereinafter sometimes referred to as "the CD3+B220+cells";abnormal T cells having the surface antigens of B cells) and the standard errors are shown in FIG. 21. In the figures, * represents that it has the significant difference with p<0.05 (wherein "p" means a level of significance by the Ryan multiple comparative test). In each group, seven mice were used.

[3] = 6.0 mg/ml eye drop, comparison of oligosaccharides

| Structure (SMILES) | degree of conjunctivitis: hyperemia, edema and lacrimation (FIG. 12) (allergic conjunctivitis; [3]) | degree of conjunctivitis: edema (FIG. 12) (allergic conjunctivitis; 6.0 mg/ml eye drop, comparison of oligosaccharides, p<0.05) | degree of conjunctivitis: edema (FIG. 13) (allergic conjunctivitis; 6 mg/ml, 3 mg/ml, and 1.5 mg/ml eye drop, p<0.05) | degree of conjunctivitis: hyperemia, edema and lacrimation (FIG. 11) (allergic conjunctivitis; 100 mg/ml eye drop) | degree of conjunctivitis: edema (FIG. 11) (allergic conjunctivitis; 100 mg/ml eye drop, p<0.05) | degree of conjunctivitis: hyperemia, edema and lacrimation (FIG. 13) (allergic conjunctivitis; 6, 3, 1.5 and 0.75 mg/ml eye drop) | weight increase in spleens and mesenteric lymph nodes (result in words) (MRL-lpr/lpr mice [1]; 10 mg/kg i.m.) | Spleen Weight (MRL-lpr/lpr mice [1]; 10 mg/kg i.m. five times a week, n = 9, mean ± standard error, control 1013 ± 233) [mg] | Mesenteric Lymph Node Weight (MRL-lpr/lpr mice [1]; 10 mg/kg i.m. five times a week, n = 9, mean ± standard error, control 1563 ± 352) [mg] | weight increase in submandibular lymph nodes (FIG. 14) (MRL-lpr/lpr mice [2]; 5 mg/kg i.m., p<0.05) | weight increase in submandibular lymph nodes (FIG. 14) (MRL-lpr/lpr mice [2]; any dose (1, 5, 25 mg/kg i.m.)) | proportion of CD3+B220+ cells (FIG. 21) (lymphocytes) | proportion of CD3+CD4+ cells (FIG. 19) (lymphocytes) | proportion of CD3+CD8a+ cells (FIG. 20) (lymphocytes) |
| --- | --- | --- | --- | --- | --- | --- | --- | --- | --- | --- | --- | --- | --- | --- |
| CC(=O)N[C@H]1[C@H](O[C@H]2[C@@H](O)[C@@H](COS(=O)(=O)O)O[C@@H](O[C@H]3[C@H](O)[C@@H](NC(C)=O)C(O)O[C@@H]3COS(=O)(=O)O)[C@@H]2O)O[C@H](COS(=O)(=O)O)[C@@H](O[C@@H]2O[C@H](COS(=O)(=O)O)[C@H](O)[C@H](O)[C@H]2O)[C@@H]1O (stereo partly drawn) [keratan sulfate tetrasaccharide (I), Gal(6S)β1-4GlcNAc(6S)β1-3Gal(6S)β1-4GlcNAc(6S)] | tended to show inhibition in all the items | shows a significant inhibitory effect on edema | showed a significant inhibitory effect on edema | tended to show inhibition in all the items | significantly inhibited edema compared with the control | tended to show inhibition in all the items | a suppressive tendency for the weight increase in spleens and mesenteric lymph nodes was observed | 704 ± 148 | 1338 ± 311 |  |  |  |  |  |
| CC(=O)N[C@H]1C(O)O[C@H](COS(=O)(=O)O)[C@@H](O[C@@H]2O[C@H](COS(=O)(=O)O)[C@H](O)[C@H](O)[C@H]2O)[C@@H]1O (stereo partly drawn) [keratan sulfate disaccharide (III), Gal(6S)β1-4GlcNAc(6S)] | tended to show inhibition in all the items |  |  |  |  |  |  |  |  | a significant suppressive effect on the weight increase was observed compared with the control group | a suppressive effect on the weight increase in submandibular lymph nodes was observed | decreased | increased significantly | increased |
